The source of these data is ChEMBL document CHEMBL1123970, “Ab initio molecular electrostatic potentials of perillartine analogues: implications for sweet-taste receptor recognition” (J Med Chem, 1988).

This test is described as follows: Compound was tasted for its sweet potency, expressed with relative to sucrose.
The compound `O/N=C/C1=CCCCC1` returned a Sweetness potency of 55.

Compound `C/C=C(C)/C(C)=N/O` registered a Sweetness potency of 140.

Turning to `O/N=C/C1=CCCC1`, the Sweetness potency amounted to 55.

With `COCC1=CCC(/C=N/O)=CC1`, the Sweetness potency was found to be 225.

For `O/N=C/C1=CCC=CC1`, the Sweetness potency stood at 200.

`CC1=CCC(/C=N/O)=CC1`: the Sweetness potency was 500.

In the case of `C/C=C(C)/C=N/O`, the Sweetness potency was found to be 40.

Take `O/N=C/C1=CC=CCC1`: the Sweetness potency was determined as 90.
